Data published in patent US12139458B2, “(2,5-dioxopyrrolidin-1-yl)(phenyl)-acetamide derivatives and their use in the treatment of neurological diseases” (UNIWERSYTET JAGIELLONSKI, priority 2019, dated 2024).

Experiments:
[1] = test system: male Swiss albino mice (CD-1); test: Psychomotor seizure test 6 Hz (32 mA); format: in vivo
How it was run: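 Compounds given i.p. in 1% aqueous Tween 30 min before a 3 s ocular stimulus (32 mA and/or 44 mA, 6 pulses/s) after lidocaine; mice normal within 10 s counted protected. ED50 from 3-4 groups of 6 mice; screening on groups of 4.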

[2] = test system: voltage-dependent sodium channels in the prefrontal cortex pyramidal neurons; test: In vitro electrophysiological study of sodium currents; format: cell-based, Rats
Procedure: The experiments were carried out in accordance with institutional and international guidelines regarding the ethics of animal research. Rats (3 weeks old) were anesthetized with ethyl chloride and decapitated. The brains were then removed and placed in ice-cold extracellular fluid. The methodology of slice preparation and pre-incubation has been described earlier (Szulczyk, B.; Nurowska, E. Biochem. Biophys. Res. Commun. 2017, 491, 291-295). The sections containing the prefrontal cortex were enzymatically and mechanically dispersed. Single prefrontal cortex pyramidal neurons were visualized using an inverted microscope (Nikon). Sodium currents were induced by rectangular depolarizing stimuli. The potential between depolarizing stimuli was maintained at −65 mV. […]
The extracellular fluid washing the neurons contained (in mM): NaCl (30), choline chloride (90), TEA-Cl (30), CaCl2 (2), MgCl2 (2), glucose (15), HEPES (10), LaCl3 (0.001) and CdCl2 (0.4) (pH 7.4). Currents were recorded using an Axopatch 1D amplifier and analyzed using pClamp software (Axon Instruments and Molecular Devices, USA). […]
The patch membrane was ruptured by suction or by an electrical stimulus, and then membrane capacitance was compensated. […] The leakage current was subtracted from the recorded currents. […]

[3] = test system: Ca2+ channel type L (verapamil binding site); test: Ca2+ channel type L (verapamil binding site) affinity study; conditions: 100 μM, rat cerebral cortex
Description: A unique feature of the compound 6 representing compounds of formula (II) according to the invention is the inhibition of calcium currents by blocking the transient receptor potential vanilloid type 1 (TRPV1). This effect has not been disclosed for known AEDs. TRPV1 receptor antagonism may determine the antinociceptive effect of the compounds disclosed herein. The role of the TRPV1 receptor in conduction of pain stimuli has been well documented in specialist literature (Szallasi, A.; Cortright, D. N.; Blum, C. A.; Eid, S. R. Nat. Rev. Drug. Discov. 2007, 6, 357-372). The compounds according to the invention are characterized by a complex mechanism of action, which is not described for known anticonvulsants. It should be emphasized, however, that further in vitro studies may reveal further molecular targets responsible for the pharmacological action of substances being the subject of current patent claim. The results of binding studies (sodium channel, calcium channel) and functional tests (TRPV1 receptor) for compound 6 are shown in Table 3.

## O=C(C(c1ccccc1)N1C(=O)CCC1=O)N1CCN(c2cccc(C(F)(F)F)c2)CC1 (racemic) [Compound 6, 1-(2-Oxo-1-phenyl-2-(4-(3-(trifluoromethyl)phenyl)piperazin-1-yl)ethyl)pyrrolidine-2,5-dione]
[1]; Mus musculus, ip, 0.5 h, mice
  ED50: 22.4 mg/kg
[1]; Mus musculus, ip, screening, 100 mg/kg i.p., 0.5 h, mice, read-out: 6 Hz (32 mA): number of mice protected/number of mice tested (converted)
  responders at 100 mg/kg: 100%
[1]; screening, 100 mg/kg, time point 0.5 h
  mice protected in the 6 Hz (32 mA) test: 100%
[2]; 100 μM, in the presence of the compound, holding -65 mV
  maximum amplitude of sodium currents normalized to control (1.0): 0.59±0.08
[2]; after wash-out of 100 μM, n=5
  sodium current amplitude normalized to control after washing out: 0.79±0.07
[3]
  Inhibition of specific control binding, Ca2+ channel type L (verapamil binding site): 58.2 (100) %
